# Measured values from patent US20170042962A1, “AGENT FOR PREVENTING OR AM[…] ENDOTHELIAL MALFUNCTION” (KYOWA HAKKO BIO CO., LTD., priority 2012, published 2017).
# System: HUVEC
# Test: NO production (nitrite, NO2, in culture supernatant by HPLC) after adding samples to HUVEC
# Assay type: cell-based, human
# Conditions: citrulline final concentration 0.3 mM, 24-hour culture, vs control (PBS)
# Description: The cells were cultured in at 37° C., in 5% CO2 incubator, and used for experiment after 4 to 6 passages. Citrulline and reduced glutathione were obtained from Kyowa Hakko Bio.
# A cell suspension (0.45 mL) with the adjusted initial cell concentration of 5×10^5 cells/mL was inoculated in a 24-well plate (IWAKI).
# Media with the sole addition of solvent (PBS) were used as a control group. After 24-hour culture, the cell culture (100 μL) was centrifuged at 12,000 rpm for 10 minutes, and the concentration of nitrite (NO2), which is the stable NO metabolite, in culture supernatant was quantified by HPLC (ENO-20, EICOM).
compound,measurement,value
"NC(=O)NCCC[C@H](N)C(=O)O [citrulline, L-citrulline]",effect on NO production (nitrite concentration in culture supernatant),no effect
